These results are taken from US12264134B2 (Merck Sharp & Dohme LLC, priority 2018, dated 2025).

This assay addresses IDO1 (Homo sapiens, UniProt P14902). The assay can be described thus: IDO1 Cellular Assay in HeLa Cells Stimulated with IFNγ. Particulars: read-out: HeLa Cell Potency, IC50. Format: cell-based.

Sequence of IDO1 (P14902 whole entry): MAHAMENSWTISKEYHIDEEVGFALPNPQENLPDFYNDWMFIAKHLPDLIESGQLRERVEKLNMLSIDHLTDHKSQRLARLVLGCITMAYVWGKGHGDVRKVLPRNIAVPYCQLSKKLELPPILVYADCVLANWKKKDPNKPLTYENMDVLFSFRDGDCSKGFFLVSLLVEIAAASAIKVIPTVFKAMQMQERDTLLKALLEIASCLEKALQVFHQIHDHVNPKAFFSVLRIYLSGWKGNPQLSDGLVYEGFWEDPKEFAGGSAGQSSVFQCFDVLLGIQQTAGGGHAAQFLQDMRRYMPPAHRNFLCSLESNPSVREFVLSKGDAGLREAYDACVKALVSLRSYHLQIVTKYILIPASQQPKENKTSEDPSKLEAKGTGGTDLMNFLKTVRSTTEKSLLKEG

Usually IC50 stands for the midpoint of a concentration-inhibition curve. `Cc1c(N2CCN(C(=O)Cn3nc(C(=O)N4CCO[C@@H](CO)C4)c4c3C[C@H]3C[C@@H]43)CC2)cccc1C(F)(F)F` [Example 343, 2-((3bR,4aR)-3-((R)-2-(hydroxymethyl)morpholine-4-carbonyl)-3b,4,4a,5-tetrahydro-1H-cyclopropa [3,4]cyclopenta[1,2-c]pyrazol-1-yl)-1-(4-(2-methyl-3-(trifluoromethyl)phenyl)piperazin-1-yl)ethanone]: the IC50 was determined as 1.91 nM.
Take `Cc1cccc(N2CCN(C(=O)Cn3nc(C(=O)N4CCC(O)C(F)C4)c4c3C[C@H]3C[C@@H]43)C3(CC3)C2)c1C` (stereo in doubt) [Example 361, 1-(7-(2,3-dimethylphenyl)-4,7-diazaspiro[2.5]octan-4-yl)-2-((3bR,4aR)-3-((3S,4S)-3-fluoro-4-hydroxypiperidine-1-carbonyl)-3b,4,4a,5-tetrahydro-1H-cyclopropa[3,4]cyclopenta[1,2-c]pyrazol-1-yl)ethanone]: the concentration for half-maximal inhibition (IC50) came to 3.01 nM.
Take `C[C@@H]1CN(C(=O)c2nn(CC(=O)N3CCN(c4cccc5c4cnn5C)CC3)c3c2CCC3)C[C@H](C)O1` [Example 79, 2-{3-[(2R,6S)-2,6-dimethylmorpholine-4-carbonyl]-5,6-dihydrocyclopenta[c]pyrazol-1(4H)-yl}-1-[4-(1-methyl-1H-indazol-4-yl)piperazin-1-yl]ethan-1-one]: the concentration for half-maximal inhibition (IC50) was 83.1 nM.
With `Cc1cccc(N2CCN(C(=O)Cn3nc(C(=O)N4CCN(C(=O)CO)CC4)c4c3CC(F)(F)CC4)CC2)c1C` [Example 22, 2-[6,6-difluoro-3-[4-(2-hydroxyacetyl)piperazine-1-carbonyl]-5,7-dihydro-4H-indazol-1-yl]-1-[4-(2,3-dimethylphenyl)piperazin-1-yl]ethanone], the IC50 was found to be 27.5 nM.
Under `Cc1cccc(N2CCN(C(=O)Cn3nc(C(=O)N4CC[C@H](O)[C@H](F)C4)c4c3C[C@H]3C[C@@H]43)C3(CC3)C2)c1C` [Example 364, 1-(7-(2,3-dimethylphenyl)-4,7-diazaspiro[2.5]octan-4-yl)-2-((3bR,4aR)-3-((3R,4S)-3-fluoro-4-hydroxypiperidine-1-carbonyl)-3b,4,4a,5-tetrahydro-1H-cyclopropa[3,4]cyclopenta[1,2-c]pyrazol-1-yl)ethanone] stands 1.47 nM; under `O=C(Cn1nc(C(=O)N2CC[C@H](O)[C@H](F)C2)c2c1CCC2)N1CCN(C2CCc3ccccc32)CC1` (single isomer, unassigned) [Example 439], 168 nM; under `Cc1c(C(F)F)cccc1N1CCN(C(=O)Cn2nc(C(=O)N3CCC(O)CC3)c3c2C[C@H]2C[C@@H]32)CC1` [Example 346, 1-(4-(3-(difluoromethyl)-2-methylphenyl)piperazin-1-yl)-2-((3bR,4aR)-3-(4-hydroxypiperidine-1-carbonyl)-3b,4,4a,5-tetahydro-1H-cyclopropa[3,4]cyclopenta[1,2-c]pyrazol-1-yl)ethanone], 0.86 nM.
For the compound `Cc1cccc(N2CCN(C(=O)Cn3nc(C(=O)N4CCN(C(=O)CO)[C@H](C)C4)c4c3CCC4)CC2)c1C` [Example 400, (R)-1-(4-(2,3-dimethylphenyl)piperazin-1-yl)-2-(3-(4-(2-hydroxyacetyl)-3-methylpiperazine-1-carbonyl)-5,6-dihydrocyclopenta[c]pyrazol-1(4H)-yl)ethanone], the 50% inhibitory concentration (IC50) worked out at 25.6 nM.
Under `O=C(Cn1nc(C(=O)N2CCC(O)CC2)c2c1CCC2)N1CCN(C2CCCc3ccccc32)CC1` (single isomer, unassigned) [Example 431] stands 3440 nM.
For `Cc1cccc(N2CCN(C(=O)Cn3nc(C(=O)N4CC[C@H](CO)[C@H](F)C4)c4c3CCC4)CC2)c1C` [Example 122, 1-[4-(2,3-dimethylphenyl)piperazin-1-yl]-2-{3-[(3S,4R)-3-fluoro-4-(hydroxymethyl)piperidine-1-carbonyl]-5,6-dihydrocyclopenta[c]pyrazol-1(4H)-yl}ethan-1-one], the IC50 came out at 10.3 nM.
For the compound `Cc1cccc(N2CCN(C(=O)Cn3nc(C(=O)N4CC[C@H](CO)C4)c4c3C[C@H]3C[C@@H]43)CC2)c1C` [Example 251, 1-[4-(2,3-dimethylphenyl)piperazin-1-yl]-2-{(3bR,4aR)-3-[(3S)-3-(hydroxymethyl)pyrrolidine-1-carbonyl]-3b,4,4a,5-tetrahydro-1H-cyclopropa[3,4]cyclopenta[1,2-c]pyrazol-1-yl}ethan-1-one], the 50% inhibitory concentration (IC50) was 0.94 nM.
Turning to `Cc1c(C(F)F)cccc1N1CCN(C(=O)Cn2nc(C(=O)N3CCO[C@@H](CO)C3)c3c2C[C@H]2C[C@@H]32)CC1` [Example 350, 1-(4-(3-(difluoromethyl)-2-methylphenyl)piperazin-1-yl)-2-((3bR,4aR)-3-((R)-2-(hydroxymethyl)morpholine-4-carbonyl)-3b,4,4a,5-tetrahydro-1H-cyclopropa[3,4]cyclopenta[1,2-c]pyrazol-1-yl)ethanone], the IC50 amounted to 5.66 nM.
For the compound `Cc1ccc(N2CCN(C(=O)Cn3nc(C(=O)N4C[C@@H](C)O[C@@H](C)C4)c4c3CCC4)CC2)cc1` [Example 34, 2-{3-[(2R,6S)-2,6-dimethylmorpholine-4-carbonyl]-5,6-dihydrocyclopenta[c]pyrazol-1(4H)-yl}-1-[4-(4-methylphenyl)piperazin-1-yl]ethan-1-one], the IC50 amounted to 142 nM.
In the case of `Cc1cccc(N2CCN(C(=O)Cn3nc(C(=O)N4CCN(C(=O)[C@@H](C)O)CC4)c4c3CCC4)CC2)c1C` [Example 403, (R)-1-(4-(1-(2-(4-(2,3-dimethylphenyl)piperazin-1-yl)-2-oxoethyl)-1,4,5,6-tetrahydrocyclopenta[c]pyrazole-3-carbonyl)piperazin-1-yl)-2-hydroxypropan-1-one], the IC50 was determined as 18.3 nM.
With `CNC(=O)NC1CCN(C(=O)c2nn(CC(=O)N3CCN(c4cccc(C)c4C)CC3)c3c2[C@@H]2C[C@@H]2C3)CC1` [Example 217, 1-(1-((3bR,4aR)-1-(2-(4-(2,3-dimethylphenyl)piperazin-1-yl)-2-oxoethyl)-3b,4,4a,5-tetrahydro-1H-cyclopropa[3,4]cyclopenta[1,2-c]pyrazole-3-carbonyl)piperidin-4-yl)-3-methylurea], the IC50 worked out at 2.1 nM.
With `Cc1cccc(N2CCN(C(=O)Cn3nc(C(=O)N4CCC(NS(N)(=O)=O)CC4)c4c3C[C@H]3C[C@@H]43)CC2)c1C` [Example 222, N-{1-[(3bR,4aR)-1-{2-[4-(2,3-dimethylphenyl)piperazin-1-yl]-2-oxoethyl}-3b,4,4a,5-tetrahydro-1H-cyclopropa[3,4]cyclopenta[1,2-c]pyrazole-3-carbonyl]piperidin-4-yl}sulfuric diamide] the figure was 6.23 nM; with `Cc1cccc(N2CCN(C(=O)Cn3nc(C(=O)N4CC[C@@H](O)[C@@H](F)C4)c4c3CCC3(C4)CC3(F)F)CC2)c1C` (stereo partly drawn) [Example 304, 2-{2,2-difluoro-3′-[(3S,4R)-3-fluoro-4-hydroxypiperidine-1-carbonyl]-6′,7′-dihydrospiro[cyclopropane-1,5-indazol]-1′(′4H)-yl}-1-[4-(2,3-dimethylphenyl)piperazin-1-yl]ethan-1-one], 30.2 nM.
For `Cc1c(Cl)cccc1N1CCN(C(=O)Cn2nc(C(=O)N3CCN(CCO)CC3)c3c2C[C@H]2C[C@@H]32)C2(CC2)C1` [Example 316, 1-[7-(3-chloro-2-methylphenyl)-4,7-diazaspiro[2.5]octan-4-yl]-2-{(3bR,4aR)-3-[4-(2-hydroxyethyl)piperazine-1-carbonyl]-3b,4,4a,5-tetrahydro-1H-cyclopropa[3,4]cyclopenta[1,2-c]pyrazol-1-yl}ethan-1-one], the IC50 came to 2.26 nM.
`CCc1ccccc1N1CCN(C(=O)Cn2nc(C(=O)N3C[C@@H](C)O[C@@H](C)C3)c3c2CCC3)CC1` [Example 72, 2-{3-[(2R,6S)-2,6-dimethylmorpholine-4-carbonyl]-5,6-dihydrocyclopenta[c]pyrazol-1(4H)-yl}-1-[4-(2-ethylphenyl)piperazin-1-yl]ethan-1-one]: the IC50 amounted to 125 nM.
Under `Cc1c(Cl)cccc1N1CCN(C(=O)Cn2nc(C(=O)N3CCN(C(=O)CO)CC3)c3c2CCC(F)C3)CC1` (stereo not shown) [Example 376, 1-(4-(3-chloro-2-methylphenyl)piperazin-1-yl)-2-(5-fluoro-3-(4-(2-hydroxyacetyl)piperazine-1-carbonyl)-4,5,6,7-tetrahydro-1H-indazol-1-yl)ethan-1-one] stands 14 nM; under `Cc1cccc(N2CCN(C(=O)Cn3nc(C(=O)N4C[C@@H](O)[C@@H](O)C4)c4c3CCC4)CC2)c1C` [Example 308, 2-{3-[(3R,4S)-3,4-dihydroxypyrrolidine-1-carbonyl]-5,6-dihydrocyclopenta[c]pyrazol-1(4H)-yl}-1-[4-(2,3-dimethylphenyl)piperazin-1-yl]ethan-1-one], 400 nM.
With `Cc1cccc(N2CCN(C(=O)Cn3nc(C(=O)N4C[C@H]5CC[C@H](O)[C@H]5C4)c4c3CCC4)CC2)c1C` [Example 100, 1-[4-(2,3-dimethylphenyl)piperazin-1-yl]-2-{3-[(3aR,4S,6aS)-4-hydroxyhexahydrocyclopenta[c]pyrrole-2(1H)-carbonyl]-5,6-dihydrocyclopenta[c]pyrazol-1(4H)-yl}ethan-1-one], the 50% inhibitory concentration (IC50) was determined as 10.7 nM.
For `Cc1cccc(N2CCN(C(=O)Cn3nc(C(=O)N4CCN5CCCC[C@H]5C4)c4c3CCC4)CC2)c1C` [Example 191, 1-[4-(2,3-dimethylphenyl)piperazin-1-yl]-2-{3-[(9aS)-octahydro-2H-pyrido[1,2-a]pyrazine-2-carbonyl]-5,6-dihydrocyclopenta[c]pyrazol-1(4H)-yl}ethan-1-one], the IC50 amounted to 2.92 nM.
Under `Cc1cccc(N2CCN(C(=O)Cn3nc(C(=O)N4CCC(O)(CO)CC4)c4c3C[C@H]3C[C@@H]43)CC2)c1C` [Example 263, 1-[4-(2,3-dimethylphenyl)piperazin-1-yl]-2-{(3bR,4aR)-3-[4-hydroxy-4-(hydroxymethyl)piperidine-1-carbonyl]-3b,4,4a,5-tetrahydro-1H-cyclopropa[3,4]cyclopenta[1,2-c]pyrazol-1-yl}ethan-1-one] stands 0.75 nM; under “1-(2-(difluoromethyl)-4-(2,3-dimethylphenyl)piperazin-1-yl)-2-((3bR,4aR)-3-(4-hydroxypiperidine-1-carbonyl)-3b,4,4a,5-tetrahydro-1H-cyclopropa[3,4]cyclopenta[1,2-c]pyrazol-1-yl)ethanone [Example 387]”, 205 nM.
